The text below walks through data of patent US20240101540A1, “TARGETED PROTEIN DEGRADATION OF PARP14 FOR USE IN THERAPY” (Ribon Therapeutics, Inc., priority 2022, published 2024).

Usually DC50 stands for the concentration at which degradation of the target reaches its halfway point.

Counter-ions that a name gives are not always drawn. Where only a bound is given, the exact number is not on record here.

The target of the experiment is T1, HiBiT tagged PARP14 (Homo sapiens, UniProt Q460N5).
T1 construct: engineered to contain a HiBiT tag on both alleles of the PARP14 gene; endogenous in cells; host or cells: Jurkat cells stably transfected with LgBiT (Promega), PARP14 locus edited by CRISPR/Cas9
T1 sequence (Q460N5 whole entry): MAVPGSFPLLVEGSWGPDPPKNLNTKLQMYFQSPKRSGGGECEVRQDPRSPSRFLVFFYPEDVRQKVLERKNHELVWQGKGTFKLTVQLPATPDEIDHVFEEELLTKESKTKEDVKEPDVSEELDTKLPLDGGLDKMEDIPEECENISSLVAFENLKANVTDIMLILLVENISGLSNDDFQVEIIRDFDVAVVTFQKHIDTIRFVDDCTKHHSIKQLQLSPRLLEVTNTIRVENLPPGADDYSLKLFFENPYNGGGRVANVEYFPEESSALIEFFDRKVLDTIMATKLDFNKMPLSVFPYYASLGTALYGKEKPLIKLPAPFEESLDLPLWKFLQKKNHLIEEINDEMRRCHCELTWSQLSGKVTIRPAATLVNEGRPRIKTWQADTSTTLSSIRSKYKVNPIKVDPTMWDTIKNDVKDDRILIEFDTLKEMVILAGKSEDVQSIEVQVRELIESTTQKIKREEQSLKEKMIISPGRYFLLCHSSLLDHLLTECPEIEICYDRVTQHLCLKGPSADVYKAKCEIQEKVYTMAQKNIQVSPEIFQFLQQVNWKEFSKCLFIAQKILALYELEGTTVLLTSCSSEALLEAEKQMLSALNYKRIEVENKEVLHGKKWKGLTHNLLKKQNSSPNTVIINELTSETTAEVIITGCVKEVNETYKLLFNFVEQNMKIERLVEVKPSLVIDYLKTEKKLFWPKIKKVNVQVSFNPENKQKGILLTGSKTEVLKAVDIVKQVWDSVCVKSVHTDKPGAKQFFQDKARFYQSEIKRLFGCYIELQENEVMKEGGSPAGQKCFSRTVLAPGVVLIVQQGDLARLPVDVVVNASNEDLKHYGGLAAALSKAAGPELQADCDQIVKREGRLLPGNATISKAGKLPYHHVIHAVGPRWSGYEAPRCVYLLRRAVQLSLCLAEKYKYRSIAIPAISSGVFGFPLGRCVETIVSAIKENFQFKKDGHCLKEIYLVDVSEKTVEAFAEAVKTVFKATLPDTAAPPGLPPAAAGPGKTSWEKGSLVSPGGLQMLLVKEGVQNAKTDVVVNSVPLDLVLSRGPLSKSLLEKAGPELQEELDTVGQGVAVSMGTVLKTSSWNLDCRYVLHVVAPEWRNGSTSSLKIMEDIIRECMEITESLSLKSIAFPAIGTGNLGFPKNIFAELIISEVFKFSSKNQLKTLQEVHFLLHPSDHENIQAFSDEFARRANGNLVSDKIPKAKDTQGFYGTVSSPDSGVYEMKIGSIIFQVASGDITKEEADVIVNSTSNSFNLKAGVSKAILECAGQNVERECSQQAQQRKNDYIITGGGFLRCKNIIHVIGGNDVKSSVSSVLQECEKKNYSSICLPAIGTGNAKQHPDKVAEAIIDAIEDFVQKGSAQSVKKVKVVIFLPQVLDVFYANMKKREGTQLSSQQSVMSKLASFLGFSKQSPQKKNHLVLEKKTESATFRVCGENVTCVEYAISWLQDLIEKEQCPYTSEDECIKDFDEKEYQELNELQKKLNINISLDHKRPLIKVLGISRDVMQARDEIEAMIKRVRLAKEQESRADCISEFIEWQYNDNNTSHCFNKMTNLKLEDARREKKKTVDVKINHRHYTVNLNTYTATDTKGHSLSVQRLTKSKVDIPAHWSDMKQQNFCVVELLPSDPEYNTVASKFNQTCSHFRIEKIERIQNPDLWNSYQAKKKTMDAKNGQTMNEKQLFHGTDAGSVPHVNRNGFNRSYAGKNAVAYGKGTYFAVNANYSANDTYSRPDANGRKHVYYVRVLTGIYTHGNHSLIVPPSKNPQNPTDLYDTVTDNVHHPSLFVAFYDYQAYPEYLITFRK
Briefly: HiBiT assay for the degradation of PARP14 (HiBiT tagged PARP14 in LgBiT expressing Jurkat cells, 2 or 24 hours). As to conditions: Assay B (Example B): HiBiT tagged PARP14 degradation in LgBiT expressing Jurkat cells, read-out: DC50. It counts as cell-based. The procedure, abridged: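 Jurkat cells stably expressing LgBiT with CRISPR knock-in of C-terminal HiBiT on both PARP14 alleles, 5,000 cells/well, treated with compound dose-response at 37 °C for 2 or 24 h. Live Cell Substrate luminescence normalised to 0.1% DMSO wells; DC50 from 4-parameter fit with floating top, bottom, Hill.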
(In general: HiBiT is a short tag that completes a luciferase, so light tracks the accessible tagged protein.)
With `O=C1CCN(c2cnc3cc(N4CCC(N5CC(N6CCC(COc7cc(F)c8c(=O)[nH]c(CSC9CCOCC9)nc8c7)CC6)C5)CC4)ccn23)C(=O)N1` [Example 167, 1-(7-(4-(3-(4-(((5-fluoro-4-oxo-2-(((tetrahydro-2H-pyran-4-yl)thio)methyl)-3,4-dihydroquinazolin-7-yl)oxy)methyl)piperidin-1-yl)azetidin-1-yl)piperidin-1-yl)imidazo[1,2-a]pyridin-3-yl)dihydropyrimidine-2,4(1H,3H)-dione], the DC50 was less than 30 nM. The same measure for `O=C1CCN(c2cncc3c(N4CCC(N5CCC(COc6cc(F)c7c(=O)[nH]c(CSC8CCOCC8)nc7c6)CC5)CC4)cccc23)C(=O)N1` [Example 162, 1-(8-(4-(((5-fluoro-4-oxo-2-(((tetrahydro-2H-pyran-4-yl)thio)methyl)-3,4-dihydroquinazolin-7-yl)oxy)methyl)-[1,4′-bipiperidin]-1′-yl)isoquinolin-4-yl)dihydropyrimidine-2,4(1H,3H)-dione]: less than 30 nM. The same measure for `COc1cc(N2CCN(CCN3CCC(COc4cc(F)c5c(=O)[nH]c(CSC6CCOCC6)nc5c4)CC3)CC2)c(F)cc1NC1CCC(=O)NC1=O` (stereo not drawn) [Example 140]: less than 30 nM; for `O=C1CCC(Nc2ccc(NC(=O)C3CCN(CCN4CCC(COc5cc(F)c6c(=O)[nH]c(COC7CCOCC7)nc6c5)CC4)CC3)c(F)c2)C(=O)N1` (stereo not drawn) [Example 201, N-(4-((2,6-dioxopiperidin-3-yl)amino)-2-fluorophenyl)-1-(2-(4-(((5-fluoro-4-oxo-2-(((tetrahydro-2H-pyran-4-yl)oxy)methyl)-3,4-dihydroquinazolin-7-yl)oxy)methyl)piperidin-1-yl)ethyl)piperidine-4-carboxamide]: less than 30 nM; for `Cn1nc(N2CCC(=O)NC2=O)c2cc(F)c(C3CCN(CCN4CCC(COc5cc(F)c6c(=O)[nH]c(COC7CCOCC7)nc6c5)CC4)CC3)cc21` [Example 198, 1-(5-fluoro-6-(1-(2-(4-(((5-fluoro-4-oxo-2-(((tetrahydro-2H-pyran-4-yl)oxy)methyl)-3,4-dihydroquinazolin-7-yl)oxy)methyl)piperidin-1-yl)ethyl)piperidin-4-yl)-1-methyl-1H-indazol-3-yl)dihydropyrimidine-2,4(1H,3H)-dione]: less than 30 nM. In the case of `O=C1CCC(Nc2ccc(N3CCC(N4CCC(N5CCC(COc6cc(F)c7c(=O)[nH]c(CSC8CCOCC8)nc7c6)CC5)CC4)CC3)c(F)c2)C(=O)N1` (stereo not drawn) [Example 228, 3-((3-fluoro-4-(4-(((5-fluoro-4-oxo-2-(((tetrahydro-2H-pyran-4-yl)thio)methyl)-3,4-dihydroquinazolin-7-yl)oxy)methyl)-[1,4′:1′,4″-terpiperidin]-1″-yl)phenyl)amino)piperidine-2,6-dione diformate], the 50% degradation concentration (DC50) was less than 30 nM.

Turning to `O=C1CCC(Nc2ccc(N3CC4(CCC(N5CCC(COc6cc(F)c7c(=O)[nH]c(CSC8CCOCC8)nc7c6)CC5)CC4)C3)cc2)C(=O)N1` (stereo not drawn) [Example 138], the DC50 is less than 30 nM. The value for `Cn1nc(N2CCC(=O)NC2=O)c2cc(F)c(N3CCC(N4CC(N5CCC(COc6cc(F)c7c(=O)[nH]c(CSC8CCOCC8)nc7c6)CC5)C4)CC3)cc21` [Example 164, 1-(5-fluoro-6-(4-(3-(4-(((5-fluoro-4-oxo-2-(((tetrahydro-2H-pyran-4-yl)thio)methyl)-3,4-dihydroquinazolin-7-yl)oxy)methyl)piperidin-1-yl)azetidin-1-yl)piperidin-1-yl)-1-methyl-1H-indazol-3-yl)dihydropyrimidine-2,4(1H,3H)-dione] was less than 30 nM; that for `O=C1CCC(Nc2ccc(N3CCN(CCN4CCC(COc5cc(F)c6c(=O)[nH]c(CC7CCCC7)nc6c5)CC4)CC3)c(F)c2)C(=O)N1` (stereo not drawn) [Example 107, 3-((4-(4-(2-(4-(((2-(cyclopentylmethyl)-5-fluoro-4-oxo-3,4-dihydroquinazolin-7-yl)oxy)methyl)piperidin-1-yl)ethyl)piperazin-1-yl)-3-fluorophenyl)amino)piperidine-2,6-dione formate] was less than 30 nM; that for `O=C1CCC(Nc2ccc(N3CCC(CN4CCC(C#Cc5cc(F)c6c(=O)[nH]c(CSC7CCOCC7)nc6c5)CC4)CC3)c(F)c2)C(=O)N1` (stereo not drawn) [Example 220, 3-((3-fluoro-4-(4-((4-((5-fluoro-4-oxo-2-(((tetrahydro-2H-pyran-4-yl)thio)methyl)-3,4-dihydroquinazolin-7-yl)ethynyl)piperidin-1-yl)methyl)piperidin-1-yl)phenyl)amino)piperidine-2,6-dione formate] was less than 30 nM.

On to `O=C1CCN(c2cnc3cc(N4CCC(N5CC(N6CCC(COc7cc(F)c8c(=O)[nH]c(COC9CCOCC9)nc8c7)CC6)C5)CC4)ccn23)C(=O)N1` [Example 168, 1-(7-(4-(3-(4-(((5-fluoro-4-oxo-2-(((tetrahydro-2H-pyran-4-yl)oxy)methyl)-3,4-dihydroquinazolin-7-yl)oxy)methyl)piperidin-1-yl)azetidin-1-yl)piperidin-1-yl)imidazo[1,2-a]pyridin-3-yl)dihydropyrimidine-2,4(1H,3H)-dione], for which the DC50 is less than 30 nM.

Take `O=C1CCN(c2ccc(N3CCN(CCN4CCC(COc5cc(F)c6c(=O)[nH]c(COC7CCOCC7)nc6c5)CC4)CC3)c(F)c2)C(=O)N1` [Example 197, 1-(3-fluoro-4-(4-(2-(4-(((5-fluoro-4-oxo-2-(((tetrahydro-2H-pyran-4-yl)oxy)methyl)-3,4-dihydroquinazolin-7-yl)oxy)methyl)piperidin-1-yl)ethyl)piperazin-1-yl)phenyl)dihydropyrimidine-2,4(1H,3H)-dione]: the half-maximal degradation concentration (DC50) is less than 30 nM. The same measure for `O=C1CCC(Nc2ccc(N3CCC(CCN4CCC(COc5cc(F)c6c(=O)[nH]c(CSC7CCOCC7)nc6c5)CC4)CC3)cc2)C(=O)N1` (stereo not drawn) [Example 118, 3-((4-(4-(2-(4-(((5-fluoro-4-oxo-2-(((tetrahydro-2H-pyran-4-yl)thio)methyl)-3,4-dihydroquinazolin-7-yl)oxy)methyl)piperidin-1-yl)ethyl)piperidin-1-yl)phenyl)amino)piperidine-2,6-dione]: less than 30 nM; for `O=C1CCC(Nc2ccc(N3CCC(N4CC(N5CCC(COc6cc(F)c7c(=O)[nH]c(CSC8CCOCC8)nc7c6)CC5)C4)CC3)c(F)c2)C(=O)N1` (single isomer, unassigned) [Example 116a, 3-((3-fluoro-4-(4-(3-(4-(((5-fluoro-4-oxo-2-(((tetrahydro-2H-pyran-4-yl)thio)methyl)-3,4-dihydroquinazolin-7-yl)oxy)methyl)piperidin-1-yl)azetidin-1-yl)piperidin-1-yl)phenyl)amino)piperidine-2,6-dione]: less than 30 nM; for `Cn1nc(N2CCC(=O)NC2=O)c2cc(F)c(N3CCC(CN4CCC(COc5cc(F)c6c(=O)[nH]c(CSC7CCOCC7)nc6c5)CC4)CC3)cc21` [Example 182, 1-(5-fluoro-6-(4-((4-(((5-fluoro-4-oxo-2-(((tetrahydro-2H-pyran-4-yl)thio)methyl)-3,4-dihydroquinazolin-7-yl)oxy)methyl)piperidin-1-yl)methyl)piperidin-1-yl)-1-methyl-1H-indazol-3-yl)dihydropyrimidine-2,4(1H,3H)-dione]: less than 30 nM.
